# Assay results as given in PubChem BioAssay AID1845209 (Molecular Pharmacology Branch, DTP, NCI, 2023).
# Tested on: NCI-H211 tumor spheroids, viability percent test/control
# Assay: Anticancer human tumor NCI-H211 cell line growth inhibition;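 also: spheroids exposed to agents for seven days before readout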
# Details: spheroids with HUVEC and MSC; for IC50: curve of first compound; for viability, T/C: stronger effect = lower value
# Procedure, shortened: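 Complex spheroids of malignant cells with endothelial cells and mesenchymal stem cells; agents alone or combined, from near clinical Cmax (or 10 microM if unknown) down in half-log steps, 0.25% DMSO final.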
# [1] = second compound 30 pM, first compound 0.00949 µM
# [2] = second compound 30 pM, first compound 0.03 µM
# [3] = second compound 30 pM, first compound 0.0949 µM
# [4] = second compound 30 pM, first compound 0.3 µM
# [5] = second compound 30 pM, first compound 0.949 µM
# [6] = second compound 30 pM, first compound 3 µM
# [7] = second compound 94.9 pM, first compound 0.00949 µM
# [8] = second compound 94.9 pM, first compound 0.03 µM
# [9] = second compound 94.9 pM, first compound 0.0949 µM
# [10] = second compound 94.9 pM, first compound 0.3 µM
# [11] = second compound 94.9 pM, first compound 0.949 µM
# [12] = second compound 94.9 pM, first compound 3 µM
# [13] = second compound 0.0003 µM, first compound 0.00949 µM
# [14] = second compound 0.0003 µM, first compound 0.03 µM
# [15] = second compound 0.0003 µM, first compound 0.0949 µM
# [16] = second compound 0.0003 µM, first compound 0.3 µM
# [17] = second compound 0.0003 µM, first compound 0.949 µM
# [18] = second compound 0.0003 µM, first compound 3 µM
# [19] = second compound 0.000949 µM, first compound 0.00949 µM
# [20] = second compound 0.000949 µM, first compound 0.03 µM
# [21] = second compound 0.000949 µM, first compound 0.0949 µM
# [22] = second compound 0.000949 µM, first compound 0.3 µM
# [23] = second compound 0.000949 µM, first compound 0.949 µM
# [24] = second compound 0.000949 µM, first compound 3 µM
# [25] = second compound 0.003 µM, first compound 0.00949 µM
# [26] = second compound 0.003 µM, first compound 0.03 µM
# [27] = second compound 0.003 µM, first compound 0.0949 µM
# [28] = second compound 0.003 µM, first compound 0.3 µM
# [29] = second compound 0.003 µM, first compound 0.949 µM
# [30] = second compound 0.003 µM, first compound 3 µM
Structure (SMILES),IC50 (second compound 30 pM),IC50 (second compound 94.9 pM),IC50 (second compound 0.0003 µM),IC50 (second compound 0.000949 µM),IC50 (second compound 0.003 µM),"viability, T/C [3]","viability, T/C [4]","viability, T/C [5]","viability, T/C [6]","viability, T/C [9]","viability, T/C [10]","viability, T/C [11]","viability, T/C [12]","viability, T/C [15]","viability, T/C [16]","viability, T/C [17]","viability, T/C [18]","viability, T/C [21]","viability, T/C [22]","viability, T/C [23]",further results
CNCc1ccc(-c2cc(-c3nc(-c4ccc(S(=O)(=O)C(C)C)cc4)cnc3N)on2)cc1 + COc1cc2c(cc1O)CCNC21CSC2c3c(OC(C)=O)c(C)c4c(c3C(COC1=O)N1C(O)C3Cc5cc(C)c(OC)c(O)c5C(C21)N3C)OCO4,22.8 nM,< 9.49 nM,< 9.49 nM,< 9.49 nM,< 9.49 nM,2.15%,0.93%,0.77%,0.11%,1.02%,0.78%,0.59%,0.11%,0.73%,0.7%,0.5%,0.1%,0.88%,0.66%,0.34%,"viability, T/C [1]: 93.2%; viability, T/C [2]: 36.2%; viability, T/C [7]: 8.16%; viability, T/C [8]: 1.5%; viability, T/C [13]: 0.82%; viability, T/C [14]: 0.84%; viability, T/C [19]: 1.01%; viability, T/C [20]: 0.87%; viability, T/C [24]: 0.11%; viability, T/C [25]: 0.11%; viability, T/C [26]: 0.11%; viability, T/C [27]: 0.09%; viability, T/C [28]: 0.1%; viability, T/C [29]: 0.1%; viability, T/C [30]: 0.15%"
Cn1ncnc1[C@H]1c2n[nH]c(=O)c3cc(F)cc(c23)N[C@@H]1c1ccc(F)cc1 + COc1cc2c(cc1O)CCNC21CSC2c3c(OC(C)=O)c(C)c4c(c3C(COC1=O)N1C(O)C3Cc5cc(C)c(OC)c(O)c5C(C21)N3C)OCO4,< 9.49 nM,< 9.49 nM,< 9.49 nM,< 9.49 nM,< 9.49 nM,0.93%,0.66%,0.63%,1%,0.72%,0.82%,0.82%,0.85%,0.92%,0.85%,0.86%,1.35%,0.76%,1.25%,0.97%,"viability, T/C [1]: 0.83%; viability, T/C [2]: 0.69%; viability, T/C [7]: 0.99%; viability, T/C [8]: 0.82%; viability, T/C [13]: 0.98%; viability, T/C [14]: 0.93%; viability, T/C [19]: 1%; viability, T/C [20]: 0.89%; viability, T/C [24]: 0.5%; viability, T/C [25]: 0.48%; viability, T/C [26]: 0.12%; viability, T/C [27]: 0.1%; viability, T/C [28]: 0.1%; viability, T/C [29]: 0.11%; viability, T/C [30]: 0.4%"
O=C(c1cc(Cc2n[nH]c(=O)c3ccccc23)ccc1F)N1CCN(C(=O)C2CC2)CC1 + COc1cc2c(cc1O)CCNC21CSC2c3c(OC(C)=O)c(C)c4c(c3C(COC1=O)N1C(O)C3Cc5cc(C)c(OC)c(O)c5C(C21)N3C)OCO4,95.2 nM,< 94.9 nM,< 94.9 nM,< 94.9 nM,< 94.9 nM,50.5%,16.1%,1.62%,0.78%,2.31%,1.2%,0.86%,0.78%,1.39%,0.85%,0.91%,0.8%,0.69%,1.29%,1.05%,"viability, T/C (second compound 30 pM, first compound 9.49 µM): 0.73%; viability, T/C (second compound 30 pM, first compound 30 µM): 0.73%; viability, T/C (second compound 94.9 pM, first compound 9.49 µM): 0.78%; viability, T/C (second compound 94.9 pM, first compound 30 µM): 0.95%; viability, T/C (second compound 0.0003 µM, first compound 9.49 µM): 1.69%; viability, T/C (second compound 0.0003 µM, first compound 30 µM): 0.79%; viability, T/C [24]: 0.61%; viability, T/C (second compound 0.000949 µM, first compound 9.49 µM): 0.73%; viability, T/C (second compound 0.000949 µM, first compound 30 µM): 0.72%; viability, T/C [27]: 0.44%; viability, T/C [28]: 0.28%; viability, T/C [29]: 0.1%; viability, T/C [30]: 0.21%; viability, T/C (second compound 0.003 µM, first compound 9.49 µM): 0.25%; viability, T/C (second compound 0.003 µM, first compound 30 µM): 0.2%"
